Laboratory results published in ChEMBL document CHEMBL1151720, “Citreamicins with potent gram-positive activity” (J Nat Prod, 2008).
Values after ≈ are worked out from the molar mass of the structure shown.

Experiments:
Streptococcus pneumoniae [1] = assay: Antimicrobial activity against penicillin-resistant Streptococcus pneumoniae 940; format: functional
Moraxella catarrhalis = assay: Antimicrobial activity against Moraxella catarrhalis 557; format: functional
Serratia marcescens = assay: Antimicrobial activity against Serratia marcescens 1635; format: functional
Staphylococcus aureus [2] = assay: Antimicrobial activity against vancomycin-intermediate Staphylococcus aureus 2012; format: functional
Streptococcus pneumoniae [3] = assay: Antimicrobial activity against penicillin-susceptible Streptococcus pneumoniae 975; format: functional
Staphylococcus aureus [4] = assay: Antimicrobial activity against methicillin-resistant Staphylococcus aureus 1137; format: functional
Haemophilus influenzae = assay: Antimicrobial activity against ampicillin-resistant Haemophilus influenzae 1742; format: functional
Escherichia coli [5] = assay: Antimicrobial activity against extended spectrum beta-lactamase producing Escherichia coli 2269; format: functional
Pseudomonas aeruginosa = assay: Antimicrobial activity against Pseudomonas aeruginosa 1473; format: functional
Escherichia coli [6] = assay: Antimicrobial activity against Escherichia coli 25922 QC; format: functional; conditions: ATCC25922
Klebsiella pneumoniae [7] = assay: Antimicrobial activity against Klebsiella pneumoniae 2239; format: functional
Staphylococcus aureus [8] = assay: Antimicrobial activity against linezolid-resistant methicillin-resistant Staphylococcus aureus 1725; format: functional
Streptococcus pneumoniae [9] = assay: Antimicrobial activity against quinolone-resistant Streptococcus pneumoniae 376; format: functional
[10] = tested on: Haemophilus parainfluenzae; assay: Antimicrobial activity against Haemophilus parainfluenzae 2319; format: functional
Staphylococcus aureus [11] = assay: Antimicrobial activity against methicillin-susceptible Staphylococcus aureus 29213; format: functional
Enterococcus faecium = assay: Antimicrobial activity against vancomycin-resistant Enterococcus faecium 700221 clinical isolate; format: functional
[12] = Cytotoxicity against NHDF cells assessed as cell viability measured by change in ATP level after 48 hrs; format: cell-based; conditions: human
[13] = Cytotoxicity against human Hep G2 cells assessed as cell viability measured by change in ATP level after 48 hrs; format: functional; conditions: HepG2, 48 h
Staphylococcus aureus [14] = assay: Antimicrobial activity against methicillin-susceptible Staphylococcus aureus 6538; format: functional
Staphylococcus aureus [15] = assay: Antimicrobial activity against methicillin-resistant Staphylococcus aureus 43300; format: functional
Escherichia coli [16] = assay: Antimicrobial activity against Escherichia coli 1411; format: functional
Klebsiella pneumoniae [17] = assay: Antimicrobial activity against ampC beta-lactamase producing multidrug-resistant Klebsiella pneumoniae 2262; format: functional

SMILES	MIC (Streptococcus pneumoniae [1]) [mg/L]	MIC (Moraxella catarrhalis) [mg/L]	MIC (Serratia marcescens) [mg/L]	MIC (Staphylococcus aureus [2]) [mg/L]	MIC (Streptococcus pneumoniae [3]) [mg/L]	MIC (Staphylococcus aureus [4]) [mg/L]	MIC (Haemophilus influenzae) [mg/L]	MIC (Escherichia coli [5]) [mg/L]	MIC (Pseudomonas aeruginosa) [mg/L]	MIC (Escherichia coli [6]) [mg/L]	MIC (Klebsiella pneumoniae [7]) [mg/L]	MIC (Staphylococcus aureus [8]) [mg/L]	MIC (Streptococcus pneumoniae [9]) [mg/L]	MIC [10] [mg/L]	MIC (Staphylococcus aureus [11]) [mg/L]	MIC (Enterococcus faecium) [mg/L]	CC90 at 48 h [12] [mg/L]	CC90 [13] [mg/L]	MIC (Staphylococcus aureus [14]) [mg/L]	MIC (Staphylococcus aureus [15]) [mg/L]	other results
CCCCCCCCCC(=O)N[C@@H](Cc1c[nH]c2ccccc12)C(=O)N[C@H](CC(N)=O)C(=O)N[C@@H](CC(=O)O)C(=O)N[C@@H]1C(=O)NCC(=O)N[C@@H](CCCN)C(=O)N[C@@H](CC(=O)O)C(=O)N[C@H](C)C(=O)N[C@@H](CC(=O)O)C(=O)NCC(=O)N[C@H](CO)C(=O)N[C@@H]([C@H](C)CC(=O)O)C(=O)N[C@@H](CC(=O)c2ccccc2N)C(=O)O[C@@H]1C	0.25 (≈ 0.154 µM)	16 (≈ 9.87 µM)	> 64	8 (≈ 4.94 µM)	0.25 (≈ 0.154 µM)	1 (≈ 0.617 µM)	> 64	> 64	> 64	> 64	> 64	1 (≈ 0.617 µM)	0.25 (≈ 0.154 µM)	> 64	1 (≈ 0.617 µM)						
COc1ccc2oc3c(c(=O)c2c1O)C(=O)c1c(ccc2cc4c(c(O)c12)C(=O)N1C(C)(C4)OC(=O)C1(C)CO)C3=O (stereo not drawn) [CITREAMICIN DELTA]		4 (≈ 7 µM)	> 64	2 (≈ 3.5 µM)	≤ 0.06	2 (≈ 3.5 µM)	1 (≈ 1.75 µM)	> 64	> 64	> 64	> 64	1 (≈ 1.75 µM)		1 (≈ 1.75 µM)	1 (≈ 1.75 µM)	≤ 0.25	0.3 (≈ 0.525 µM)	2.4 (≈ 4.2 µM)	≤ 0.5	0.5 (≈ 0.875 µM)	MIC (Escherichia coli [16]): > 128 mg/L
COc1ccc2oc3c(O)c4c(c(O)c3c(=O)c2c1O)-c1c(cc2c(c1O)C(=O)N1C(C)(C2)OC(=O)C1(C)CO)CC4 (stereo not drawn) [CITREAMICIN EPSILON]	0.12 (≈ 0.209 µM)	0.5 (≈ 0.869 µM)	> 32	0.25 (≈ 0.434 µM)	0.25 (≈ 0.434 µM)	0.25 (≈ 0.434 µM)	> 32	> 32	> 32	> 32	> 32	0.12 (≈ 0.209 µM)	0.25 (≈ 0.434 µM)	> 32	0.12 (≈ 0.209 µM)	0.5 (≈ 0.869 µM)	0.1 (≈ 0.174 µM)	1 (≈ 1.74 µM)	0.13 (≈ 0.226 µM)	0.13 (≈ 0.226 µM)	MIC (Klebsiella pneumoniae [17]): > 32 mg/L; MIC (Escherichia coli [16]): > 64 mg/L
CC(=O)NC[C@H]1CN(c2ccc(N3CCOCC3)c(F)c2)C(=O)O1 [LINEZOLID]	0.25 (≈ 0.741 µM)	4 (≈ 11.9 µM)	> 64	1 (≈ 2.96 µM)			8 (≈ 23.7 µM)	> 64	> 64	> 64	> 64			16 (≈ 47.4 µM)					0.5 (≈ 1.48 µM)	1 (≈ 2.96 µM)	
C[C@@H](O)[C@H]1C(=O)N2C(C(=O)O)=C(S[C@@H]3CN[C@H](C(=O)N(C)C)C3)[C@H](C)[C@H]12 [MEROPENEM]	1 (≈ 2.61 µM)	≤ 0.004	0.06 (≈ 0.156 µM)	> 4	0.015 (≈ 0.0391 µM)		0.06 (≈ 0.156 µM)	0.03 (≈ 0.0782 µM)	4 (≈ 10.4 µM)	0.03 (≈ 0.0782 µM)	0.06 (≈ 0.156 µM)	0.25 (≈ 0.652 µM)	0.015 (≈ 0.0391 µM)	0.03 (≈ 0.0782 µM)	0.25 (≈ 0.652 µM)						MIC (Klebsiella pneumoniae [17]): > 64 mg/L
